Reference: US20060217345A1, “Beta-L-nucleosides and use thereof as pharmaceutical agents for the treatment of viral diseases” (priority 2003, published 2006)
Where two headings read alike, the source gives them in different places.

How the values were obtained:
HBV replication = conditions: 5-modified β-L-cytosine nucleosides; compares with compounds with non-modified bases; cited from earlier work
HBV DNA polymerase = molecular target: T1, HBV DNA polymerase (Hepatitis B virus genotype D subtype ayw, UniProt P03156); assay: Inhibition of endogenous HBV DNA polymerase activity (3H-dCTP incorporation); assay type: biochemical; conditions: nucleoside triphosphates; purified virus particles from patient serum; 0.7 μM dCTP; two-hour incubation at 37° C.; read-out: IC50 (50% inhibition of the HBV DNA polymerase activity)
T1 construct: 30 μl of polymerase batch included about 2-4×10^8 purified virus particles (lysed beforehand); from tissue; host or cells: Serum of patients infected with hepatitis B virus (Charité, Berlin); virus particles purified through a saccharose gradient and lysed
T1 sequence (P03156 whole entry): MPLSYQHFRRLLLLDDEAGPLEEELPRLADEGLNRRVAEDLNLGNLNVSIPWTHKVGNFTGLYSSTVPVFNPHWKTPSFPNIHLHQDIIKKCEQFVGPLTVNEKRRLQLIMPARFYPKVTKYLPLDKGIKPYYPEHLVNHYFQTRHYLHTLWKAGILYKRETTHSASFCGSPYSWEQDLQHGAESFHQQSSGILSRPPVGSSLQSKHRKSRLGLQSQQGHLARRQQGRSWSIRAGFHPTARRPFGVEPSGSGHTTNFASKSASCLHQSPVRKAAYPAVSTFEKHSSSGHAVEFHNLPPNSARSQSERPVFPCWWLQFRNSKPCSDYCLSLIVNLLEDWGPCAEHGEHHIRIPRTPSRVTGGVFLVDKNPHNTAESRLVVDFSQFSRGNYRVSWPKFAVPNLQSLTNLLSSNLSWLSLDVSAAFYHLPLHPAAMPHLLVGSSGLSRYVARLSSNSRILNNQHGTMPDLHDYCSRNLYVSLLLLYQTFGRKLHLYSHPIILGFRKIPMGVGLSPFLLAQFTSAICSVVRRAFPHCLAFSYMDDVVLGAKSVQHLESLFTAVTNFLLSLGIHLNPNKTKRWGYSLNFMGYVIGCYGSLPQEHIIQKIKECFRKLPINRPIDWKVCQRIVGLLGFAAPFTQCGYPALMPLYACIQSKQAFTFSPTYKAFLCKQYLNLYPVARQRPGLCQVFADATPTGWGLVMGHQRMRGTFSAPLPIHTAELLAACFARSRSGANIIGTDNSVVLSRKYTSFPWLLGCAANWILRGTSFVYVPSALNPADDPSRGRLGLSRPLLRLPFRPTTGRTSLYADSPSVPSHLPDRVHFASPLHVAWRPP
Method: Synthesis and purification of the triphosphates of β-L-5-methylcytidine nucleosides were effected according to well-known methods (Yoshikawa et al., Tetradedron Lett 1967, 50: 5065-5068; Hoard et Ott, J Am Chem Soc 1965, 87: 1785-1788).
To determine the endogenous HBV DNA polymerase activity, about 60 ml of serum from patients with hepatitis B virus infections from Charité, Berlin (>10^7 HBV particles/ml), was centrifuged at 3000 rpm, followed by sedimentation of the virus particles at 25,000 g, 60 min, taking up in 7 ml of TKM buffer (50 mM Tris-HCl, pH 7.5, 50 mM KCl, 5 mM MgCl2), and centrifugation through a saccharose gradient (0.3 M, 0.6 M, 0.9 M saccharose in 10 ml of TKM buffer each time) at 25,000 g for 20 hours. The purified virus sediment was suspended in 400 μl of TKM using ultrasound, divided in aliquots and frozen at −80° C. (Davies et al., Antiviral Res 1996, 30: 133-145).
30 μl of polymerase batch included about 2-4×10^8 purified virus particles (lysed beforehand in 6% β-mercaptoethanol, 10% Igepal for 15 min at room temperature), 42 mM Tris-HCl, (pH 7.5), 34 mM MgCl2, 340 mM KCl, 22 mM β-mercaptoethanol, 0.4% Igepal, 70 μM TTP, dATP, dGTP and 1 μCi ^3H-dCTP (=0.7 μM dCTP) (Matthes et al., Antimicrob Agents & Chemoth 1991, 35: 1254-1257) and varying concentrations of β-L-5-methylcytidine nucleoside triphosphates.
Following a two-hour incubation at 37° C., 20 μl of each batch was placed on paper filter, washed 5 times with 5% trichloroacetic acid and 0.1% Na pyrophosphate, and the ^3H-dCTP incorporated in the HBV DNA was subsequently measured in a Liquid Scintillation Counter.
Using the concentration-dependent inhibition curves of HBV DNA synthesis, the concentration of β-L-5-methylcytidine nucleoside triphosphates resulting in 50% inhibition of the HBV DNA polymerase activity was determined. The IC50 values are illustrated in Table 2.

HBV infections = conditions: treatment of HBV infections; cited from earlier work
[1] = system: HBV replication in HepG2 2.2.15 cells; assay: Antiviral activity: reduction of extracellular HBV DNA in HepG2 2.2.15 cells; assay type: cell-based, hepatitis B virus; conditions: read-out: ED50 values (concentration resulting in 50% reduction of HBV DNA in the medium of the cells)
Method: The antiviral efficacy of the compounds of at least one embodiment was investigated on HepG2 2.2.15 cells, a human hepatoblastoma cell line which has the replication-competent HBV genome stably integrated therein and produces infectious progeny viruses in a productive manner (Sells et al., Proc Natl Acad Sci USA 1987, 84: 1005-1009).
The above cells were cultured under standardized conditions as specified by Korba and Gerin, and the amount of extracellular viral DNA was determined (Korba et al., Antiviral Res 1992, 19: 55-70).
Following passaging, the HepG2 2.2.15 cells were seeded at a density of about 60% in 12-well plates and cultured to confluence in 10% FBS Dulbecco MEM. Thereafter, the medium was changed to 2% FBS, and the cells were cultured for another 24 hours.
After another change of medium, the cells were treated with varying concentrations of compounds according to at least one embodiment. Every 24 hours the compounds were re-added together with the medium. […]
Following treatment of the culture supernatants with proteinase K, the extracellular viral DNA was amplified by means of PCR using the following primers (forward: 5′-CTCCAGTTCAGGAACAGTAAACCC-3′; reverse: 5′-TTGTGAGCTCAGAAAGGCCTTGTAAGTTGGCG-3′. The PCR products were separated on 1% agarose, stained with ethidium bromide and quantified using a Fluor-S™ Multimager (Biorad).
For calibration of the PCR reaction, serial dilutions of the pUC19 HBV and pTHBV plasmids with known genome equivalents (GE) were used, resulting in a lower detection limit of about 10^3 GE and a linearity between 10^3 and 10^5 GE.

HL-60 cells = assay: Cytotoxicity: inhibition of proliferation of HL-60 cells; assay type: cell-based, human; conditions: RPMI medium, incubated for two days
Method: (§1) To this end, established cells of a human myeloid leukemia (HL-60) in RPMI medium, and the above-mentioned HepG2 cells in Dulbecco MEM, respectively, were incubated for two days using varying concentrations of compounds, and the proliferation rate of the cells was subsequently determined. The data was used to determine the concentration of compounds resulting in 50% inhibition of proliferation (CD50).

HepG2 cells = assay: Cytotoxicity: inhibition of proliferation of HepG2 cells; assay type: cell-based, human; conditions: Hep G2 cells, Dulbecco MEM, incubated for two days
Method: as §1

[2] = HepG2 2.2.15 cells, extracellular HBV DNA by PCR, after 9 days of incubation

Cc1cn([C@@H]2C[C@@H](F)[C@H](CO)O2)c(=O)nc1N [β-L-2′,3′-dideoxy-3′-fluoro-5-methylcytidine]
effect with respect to HBV replication, as described in the literature (HBV replication): ineffective or sparingly effective

Cc1cn([C@@H]2C[C@@H](N=[N+]=[N-])[C@H](COP(=O)(O)OP(=O)(O)OP(=O)(O)O)O2)c(=O)nc1N [Triphosphate of β-L-N3MetCdR]
IC50 (HBV DNA polymerase): 0.8 µM

α-interferon
proportion of the patients in whom it is effective (HBV infections): about 33%

Nc1nc(=O)n(C2CSC(CO)O2)cc1Br [β-L-2′,3′-dideoxy-3′-thia-5-bromocytidine]
effect with respect to HBV replication, as described in the literature (HBV replication): ineffective or sparingly effective

Cc1cn([C@H]2O[C@@H](CO)[C@H](O)[C@H]2O)c(=O)nc1N [β-L-AraMetC, 1-β-L-arabinofuranosyl-5-methylcytosine]
EC50 ([1]; Hepatitis B virus, HepG2 2.2.15, 216 h): > 20000 nM | Cytotoxicity (CD50), concentration resulting in 50% inhibition of proliferation (HL-60 cells): >2000 | Cytotoxicity (CD50), concentration resulting in 50% inhibition of proliferation (HepG2 cells): >2000

Cc1cn([C@@H]2C[C@@H](O)[C@H](CO)O2)c(=O)nc1N [β-L-MetCdR, β-L-5-methyldeoxycytidine]
EC50 [1, 2]: 270 to 600 nM | Cytotoxicity (CD50), concentration resulting in 50% inhibition of proliferation (HL-60 cells): >2000 | Cytotoxicity (CD50), concentration resulting in 50% inhibition of proliferation (HepG2 cells): >2000

Cc1cn([C@@H]2C=C[C@H](COP(=O)(O)OP(=O)(O)OP(=O)(O)O)O2)c(=O)nc1N [Triphosphate of β-L-ddeMetCdR]
IC50 (HBV DNA polymerase): 6.2 µM

Cc1cn([C@@H]2C[C@@H](N=[N+]=[N-])[C@H](CO)O2)c(=O)nc1N [β-L-N3MetCdR, β-L-3′-azido-2′,3′-dideoxy-5-methylcytidine]
EC50 [1, 2]: 350 to 950 nM | Cytotoxicity (CD50), concentration resulting in 50% inhibition of proliferation (HL-60 cells): 2000 | Cytotoxicity (CD50), concentration resulting in 50% inhibition of proliferation (HepG2 cells): >2000

Nc1nc(=O)n([C@H]2C[C@H](O)[C@@H](CO)O2)cc1Cl [CldC, β-L-deoxy-5-chlorocytidine]
effect with respect to HBV replication, as described in the literature (HBV replication): ineffective or sparingly effective

Cc1cn([C@H]2O[C@@H](COP(=O)(O)OP(=O)(O)OP(=O)(O)O)[C@H](O)[C@H]2O)c(=O)nc1N [Triphosphate of β-L-AraMetC]
IC50 (HBV DNA polymerase): 10.8 µM

Cc1cn([C@@H]2CC[C@H](CO)O2)c(=O)nc1N [β-L-ddMetC, β-L-2′,3′-dideoxy-5-methylcytidine]
EC50 [1, 2]: > 20000 nM

Cc1cn(C2CSC(CO)O2)c(=O)nc1N [β-L-2′,3′-dideoxy-3′-thia-5-methylcytidine]
effect with respect to HBV replication, as described in the literature (HBV replication): ineffective or sparingly effective

Nc1nc(=O)n([C@H]2O[C@@H](CO)[C@H](O)[C@H]2F)cc1Br [L-FABrC, β-L-2′-fluoroarabinofuranosyl-5-bromocytosine]
effect with respect to HBV replication, as described in the literature (HBV replication): ineffective or sparingly effective

Cc1cn([C@@H]2C=C[C@H](CO)O2)c(=O)nc1N [β-L-ddeMetC, β-L-2′,3′-didehydro-2′,3′-dideoxy-5-methylcytidine]
EC50 [1, 2]: > 20000 nM | Cytotoxicity (CD50), concentration resulting in 50% inhibition of proliferation (HL-60 cells): 600 | Cytotoxicity (CD50), concentration resulting in 50% inhibition of proliferation (HepG2 cells): 1500

Nc1nc(=O)n([C@H]2O[C@@H](CO)[C@H](O)[C@H]2F)cc1F [L-FAFC, β-L-2′-fluoroarabinofuranosyl-5-fluorocytosine]
effect with respect to HBV replication, as described in the literature (HBV replication): no effect

Nc1nc(=O)n([C@@H]2C=C[C@H](CO)O2)cc1F [L-FddeC, β-L-2′,3′-dideoxy-2′,3′-didehydro-5-fluorocytidine]
effect with respect to HBV replication, as described in the literature (HBV replication): more effective

Nc1nc(=O)n([C@H]2O[C@@H](CO)[C@H](O)[C@H]2O)cc1F [L-AraFC, β-L-arabinofuranosyl-5-fluorocytosine]
effect with respect to HBV replication, as described in the literature (HBV replication): no effect

Cc1cn([C@@H]2CC[C@H](COP(=O)(O)OP(=O)(O)OP(=O)(O)O)O2)c(=O)nc1N [Triphosphate of β-L-ddMetCdR]
IC50 (HBV DNA polymerase): 6.5 µM

Cc1cn([C@@H]2C[C@@H](O)[C@H](COP(=O)(O)OP(=O)(O)OP(=O)(O)O)O2)c(=O)nc1N [Triphosphate of β-L-MetCdR]
IC50 (HBV DNA polymerase): 0.9 µM

Nc1ccn([C@@H]2CS[C@H](COP(=O)(O)OP(=O)(O)OP(=O)(O)O)O2)c(=O)n1 [Triphosphate of 3TC, reference compound]
IC50 (HBV DNA polymerase): 0.3 µM

Nc1nc(=O)n([C@H]2CC[C@@H](CO)O2)cc1F [L-FddC, β-L-2′,3′-dideoxy-5-fluorocytidine]
effect with respect to HBV replication, as described in the literature (HBV replication): equally effective

Nc1nc(=O)n([C@H]2O[C@@H](CO)[C@H](O)[C@H]2F)cc1Cl [L-FAC1C, β-L-2′-fluoroarabinofuranosyl-5-chlorocytidine]
effect with respect to HBV replication, as described in the literature (HBV replication): ineffective or sparingly effective

Nc1nc(=O)n(C2OC(CO)C=C2F)cc1F [L-2′F-ddeFC, β-L-2′,3′-dideoxy-2′,3′-didehydro-2′-fluoro-5-fluorocytidine]
effect with respect to HBV replication, as described in the literature (HBV replication): equally effective

Nc1ccn([C@@H]2CS[C@H](CO)O2)c(=O)n1 [3TC, β-L-2′,3′-dideoxy-3′-thiacytidine, reference compound]
EC50 ([1]; Hepatitis B virus, 216 h, HepG2 2.2.15 cells, extracellular HBV DNA by PCR, after 9 days of incubation): 100 to 200 nM

Nc1nc(=O)n([C@H]2C[C@H](O)[C@@H](CO)O2)cc1F [FdC, β-L-deoxy-5-fluorocytidine]
effect with respect to HBV replication, as described in the literature (HBV replication): less effective

Nc1nc(=O)n(C2CSC(CO)O2)cc1Cl [β-L-2′,3′-dideoxy-3′-thia-5-chlorocytidine]
effect with respect to HBV replication, as described in the literature (HBV replication): ineffective or sparingly effective
